From PubChem BioAssay (NCI)
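The compound was tested at five concentrations on cells cultured in 96-well plates, with a 48-hour exposure period. The concentration for 50% growth inhibition is given as GI50. TGI: concentration producing complete growth inhibition.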

Experiments:
Test in all cases: NCI anticancer screen, dose series, 48 h
DU-145 prostate = tested on: DU-145 prostate
HCC-2998 colon = tested on: HCC-2998 colon
MALME-3M melanoma = tested on: MALME-3M melanoma
SN12C renal = tested on: SN12C renal
SR leukemia = tested on: SR leukemia
SW-620 colon = tested on: SW-620 colon
SF-539 CNS = tested on: SF-539 CNS
T-47D breast = tested on: T-47D breast
BT-549 breast = tested on: BT-549 breast
HCT-15 colon = tested on: HCT-15 colon
SK-MEL-2 melanoma = tested on: SK-MEL-2 melanoma
MDA-MB-231 breast = tested on: MDA-MB-231 breast
UACC-62 melanoma = tested on: UACC-62 melanoma
HS 578T breast = tested on: HS 578T breast
ACHN renal = tested on: ACHN renal
RPMI-8226 leukemia = tested on: RPMI-8226 leukemia
SNB-75 CNS = tested on: SNB-75 CNS
NCI-H226 lung = tested on: NCI-H226 lung
SF-268 CNS = tested on: SF-268 CNS
TK-10 renal = tested on: TK-10 renal
A498 renal = tested on: A498 renal
CCRF-CEM leukemia = tested on: CCRF-CEM leukemia
U251 CNS = tested on: U251 CNS
A549 NSCLC = tested on: A549 NSCLC
M14 melanoma = tested on: M14 melanoma
COLO 205 colon = tested on: COLO 205 colon
OVCAR-5 ovarian = tested on: OVCAR-5 ovarian
HOP-62 NSCLC = tested on: HOP-62 NSCLC

Q: `COc1ccccc1-n1c(SCc2cc(OC)c(OC)c(OC)c2)nc2ccc(Cl)cc2c1=O` was tested. Which TGI (DU-145 prostate) did it give?
A: Its TGI is > 100 µM.

Q: And the GI50 (HCC-2998 colon)?
A: Its GI50 is 7.8 µM.

Q: And the TGI (HCC-2998 colon)?
A: Its TGI is > 100 µM.

Q: And the GI50 (MALME-3M melanoma)?
A: Its GI50 is 8.76 µM.

Q: And the TGI (MALME-3M melanoma)?
A: The TGI was > 100 µM.

Q: And the GI50 (SN12C renal)?
A: Its GI50 is 7.81 µM.

Q: What about the TGI (SN12C renal) of the same compound?
A: Its TGI is > 100 µM.

Q: What about the GI50 (SR leukemia) of the same compound?
A: Its GI50 is 0.538 µM.

Q: And the TGI (SR leukemia)?
A: Its TGI is > 100 µM.

Q: And the GI50 (SW-620 colon)?
A: Its GI50 is 2.59 µM.

Q: And the TGI (SW-620 colon)?
A: Its TGI is > 100 µM.

Q: And the GI50 (SF-539 CNS)?
A: Its GI50 is 3.41 µM.

Q: And the TGI (SF-539 CNS)?
A: The TGI was 19.6 µM.

Q: And the GI50 (T-47D breast)?
A: The GI50 was 4.95 µM.

Q: And the TGI (T-47D breast)?
A: The TGI was > 100 µM.

Q: What about the GI50 (BT-549 breast) of the same compound?
A: The GI50 was 3.95 µM.

Q: What about the TGI (BT-549 breast) of the same compound?
A: Its TGI is > 100 µM.

Q: What about the GI50 (HCT-15 colon) of the same compound?
A: Its GI50 is 1.46 µM.

Q: What about the TGI (HCT-15 colon) of the same compound?
A: The TGI was > 100 µM.

Q: What about the GI50 (SK-MEL-2 melanoma) of the same compound?
A: Its GI50 is 4.88 µM.

Q: And the TGI (SK-MEL-2 melanoma)?
A: The TGI was > 100 µM.

Q: And the GI50 (MDA-MB-231 breast)?
A: Its GI50 is 4.24 µM.

Q: What about the TGI (MDA-MB-231 breast) of the same compound?
A: The TGI was > 100 µM.

Q: And the GI50 (UACC-62 melanoma)?
A: The GI50 was 3.04 µM.

Q: And the TGI (UACC-62 melanoma)?
A: Its TGI is > 100 µM.

Q: What about the GI50 (HS 578T breast) of the same compound?
A: The GI50 was 5.81 µM.

Q: And the TGI (HS 578T breast)?
A: The TGI was > 100 µM.

Q: What about the GI50 (ACHN renal) of the same compound?
A: The GI50 was 7.07 µM.

Q: And the TGI (ACHN renal)?
A: Its TGI is > 100 µM.

Q: What about the GI50 (RPMI-8226 leukemia) of the same compound?
A: The GI50 was 3.71 µM.

Q: And the TGI (RPMI-8226 leukemia)?
A: Its TGI is > 100 µM.

Q: And the GI50 (SNB-75 CNS)?
A: Its GI50 is 2.41 µM.

Q: What about the TGI (SNB-75 CNS) of the same compound?
A: Its TGI is 32.7 µM.

Q: And the GI50 (NCI-H226 lung)?
A: The GI50 was 13.3 µM.

Q: And the TGI (NCI-H226 lung)?
A: The TGI was > 100 µM.

Q: And the GI50 (SF-268 CNS)?
A: The GI50 was 23.1 µM.

Q: What about the TGI (SF-268 CNS) of the same compound?
A: Its TGI is > 100 µM.

Q: What about the GI50 (TK-10 renal) of the same compound?
A: The GI50 was 48.6 µM.

Q: What about the TGI (TK-10 renal) of the same compound?
A: Its TGI is > 100 µM.

Q: And the GI50 (A498 renal)?
A: Its GI50 is 1.76 µM.

Q: What about the TGI (A498 renal) of the same compound?
A: Its TGI is 48.2 µM.

Q: And the GI50 (CCRF-CEM leukemia)?
A: The GI50 was 3.07 µM.

Q: What about the TGI (CCRF-CEM leukemia) of the same compound?
A: The TGI was > 100 µM.

Q: What about the GI50 (U251 CNS) of the same compound?
A: Its GI50 is 3.72 µM.

Q: And the TGI (U251 CNS)?
A: The TGI was > 100 µM.

Q: And the GI50 (A549 NSCLC)?
A: The GI50 was 2.87 µM.

Q: What about the TGI (A549 NSCLC) of the same compound?
A: The TGI was > 100 µM.

Q: What about the GI50 (M14 melanoma) of the same compound?
A: Its GI50 is 2.22 µM.

Q: What about the TGI (M14 melanoma) of the same compound?
A: Its TGI is > 100 µM.

Q: What about the GI50 (COLO 205 colon) of the same compound?
A: The GI50 was 3.03 µM.

Q: And the TGI (COLO 205 colon)?
A: The TGI was > 100 µM.

Q: What about the GI50 (OVCAR-5 ovarian) of the same compound?
A: The GI50 was 7.47 µM.

Q: What about the TGI (OVCAR-5 ovarian) of the same compound?
A: Its TGI is > 100 µM.

Q: What about the GI50 (HOP-62 NSCLC) of the same compound?
A: Its GI50 is 9.4 µM.

Q: And the TGI (HOP-62 NSCLC)?
A: The TGI was > 100 µM.
